Source: patent US4054669A, “Phenolic menthene derivatives, therapeutic composition containing same and their use as therapeutic compositions” (Les Derives Resiniques et Terpeniques, priority 1975, dated 1977)
In brackets after ≈: the same amount, converted by molar mass.

Columns and labels:
Proteus vulgaris = assay: Antibacterial activity, dilution method: Proteus vulgaris; assay type: cell-based; conditions: Difco bacto-peptone medium
Method: (§1) The tests were carried out according to the dilution method.
(§2) To determine the activity against Staphylococcus, Proteus vulgaris, Klebsiella pneumoniae and Escherichia coli, use was made of Difco bacto-peptone medium, and nutrient broth T was used to investigate the activity against Pneumococcus.

[1] = Solubility in physiological saline solution; assay type: physicochemical
[2] = system: Staphylococcus pyogenes aureus Oxford; assay: Antibacterial activity, dilution method: Staphylococcus pyogenes aureus Oxford; assay type: cell-based; conditions: Difco bacto-peptone medium
Method: as §1, §2

[3] = Acute toxicity, Karber and Behrens method, female IFFA-CREDO mice; conditions: mouse, in vivo
Method: Acute toxicity was determined by the intravenous and oral routes, using the Karber and Behrens method, in mice female IFFA-CREDO weighing 20 g (10 mice per dosage level).

Klebsiella pneumoniae = assay: Antibacterial activity, dilution method: Klebsiella pneumoniae; assay type: cell-based; conditions: Difco bacto-peptone medium
Method: as §1, §2

gram-positive germs = assay: Antibacterial activity, dilution method: gram-positive germs (summary); assay type: cell-based; conditions: in words
Method: as §1, §2

Escherichia coli = assay: Antibacterial activity, dilution method: Escherichia coli; assay type: cell-based; conditions: Difco bacto-peptone medium
Method: as §1, §2

[4] = system: Diplococcus pneumoniae 692; assay: Antibacterial activity, dilution method: Diplococcus pneumoniae 692; assay type: cell-based; conditions: for MIC: Streptococcus pneumoniae, 692, nutrient broth T
Method: as §1, §2

[5] = system: Streptococcus pyrogenes 5625; assay: Antibacterial activity, dilution method: Streptococcus pyrogenes 5625; assay type: cell-based
Method: as §1, §2

[6] = Sensitivity to light and air; assay type: physicochemical

Structure (SMILES)	MIC (Proteus vulgaris)	solubility in physiological saline solution [1]	MIC [2]	LD50 ([3]; iv)	LD50 ([3]; po)	MIC (Klebsiella pneumoniae)	activity against gram-positive germs (gram-positive germs)	MIC (Escherichia coli)	MIC [4]	activity against Diplococcus pneumoniae ([4]; in words)	MIC [5]	sensitivity to light and air [6]
CC1CC=C(c2ccc(O)c(S(=O)(=O)O)c2)C(C(C)C)C1 (stereo not shown) [LJ 2148, sodium m.menthene-phenol-2-sulfonate]	> 1000 µg/mL	soluble in physiological saline solution	28 µg/mL	305 mg/kg	2900 mg/kg	> 1000 µg/mL	active against gram-positive germs	> 1000 µg/mL	3 µg/mL	particularly active against Diplococcus pneumoniae	10 µg/mL	
Cc1c(C2=CCC(C)CC2C(C)C)cc(C(C)C)c(O)c1S(=O)(=O)O (stereo not shown) [LJ 2128, m.menthene-thymol-2-sulfonate]	> 1000 µg/mL	soluble in physiological saline solution, giving a clear solution	140 µg/mL (≈ 382 µM)	125 mg/kg	1920 mg/kg	> 1000 µg/mL	active against gram-positive germs	> 1000 µg/mL	12 µg/mL (≈ 32.7 µM)		16 µg/mL (≈ 43.7 µM)	
CC1CC=C(c2ccc(O)cc2)C(C(C)C)C1 (stereo not shown) [m.menthene-phenol, 4-(3'-m.menthen-4'-yl)-phenol]												highly sensitive to light and air
